Laboratory results from ChEMBL document CHEMBL1158079, “Antimalarial 4-phenylcoumarins from the stem bark of Hintonia latiflora” (J Nat Prod, 2006).
Converted amounts (≈) assume the structure as drawn.

Columns and labels:
[1] = system: Mus musculus; assay: Toxicity in Plasmodium berghei ANKA infected mice (Mus musculus) at 40 mg/kg/day, perorally after 4 days; format: organism-based; design: route oral; settings: in vivo, po, 96 h
[2] = system: Plasmodium berghei; assay: Antimalarial activity as reduced schizont maturation in Plasmodium berghei after 16 hrs; format: functional; design: scale not given: the % may be the effect or the level left
[3] = system: Plasmodium berghei; assay: Antimalarial activity as reduced schizont maturation in Plasmodium berghei ANKA infected mice (Mus musculus) at 40 mg/kg/day peroral dose over 4 days; format: functional; design: scale not given: the % may be the effect or the level left; settings: route oral
[4] = system: Plasmodium berghei; assay: Antimalarial activity as reduced schizont maturation in Plasmodium berghei ANKA infected mice (Mus musculus) at 5 mg/kg/day peroral dose over 4 days; format: functional; design: scale not given: the % may be the effect or the level left; settings: route oral
[5] = system: Plasmodium berghei; assay: Antimalarial activity reduced schizont maturation in Plasmodium berghei at 10 ug/mL after 16 hrs; format: functional; design: scale not given: the % may be the effect or the level left
[6] = system: Plasmodium berghei; assay: Antimalarial activity in schizont maturation against Plasmodium berghei ANKA infected mice (Mus musculus) at 200 mg/kg/day peroral dose over 4 days; format: functional; settings: route oral
[7] = Toxicity against human SQC1 UISO cells; format: cell-based; settings: read-out: ED50 (the source's name)
[8] = Toxicity against mouse P388 cells; format: cell-based; settings: read-out: ED50 (the source's name)
[9] = Toxicity against human KB cells; format: cell-based; settings: read-out: ED50 (the source's name)

Row | SMILES | Activity [1] | Activity [2] [%] | Activity [3] [%] | Activity [4] [%] | Activity [5] [%] | Activity [6] [%] | CC50 [7] [µg/mL] | CC50 [8] [µg/mL] | CC50 [9] [µg/mL]
1 | COc1cc(O[C@@H]2O[C@H](CO)[C@@H](O)[C@H](O)[C@H]2O)c2c(-c3ccc(O)c(O)c3)cc(=O)oc2c1 | Non-toxic | 25.9 | 70.8 |  |  |  |  |  | 
2 | COc1cc(O[C@@H]2O[C@H](CO)[C@@H](O)[C@H](O)[C@H]2O)c2c(-c3ccc(OC)c(O)c3)cc(=O)oc2c1 | Non-toxic | 24.7 | 35.1 |  |  |  |  |  | 
3 | CCN(CC)CCCC(C)Nc1ccnc2cc(Cl)ccc12 (stereo not drawn) [CHLOROQUINE] | Non-toxic |  |  | 95.7 | 100 | 94 |  |  | 
4 | Cc1c2ccncc2c(C)c2c1[nH]c1ccccc12 [ELLIPTECINE] |  |  |  |  |  |  | 1.77 (≈ 7.19 µM) | < 1 | 1.31 (≈ 5.32 µM)
